From PMC7440915, “Discovery of surrogate agonists for visceral fat Treg cells that modulate metabolic indices in vivo” (eLife, 2020)
pEC50, pKd: −log10 of the molar value. Where no end group is shown, it is not given here.

How the values were obtained:
vTreg53 (Fat) TCR = assay: Surface plasmon resonance, pMHC/Fat TCR affinity; type: binding, murine; details: 25°C; for pKd: Biacore T100, biotinylated pMHC immobilized on SA chip 200 to 600 RU, HBS-P+, equilibrium, representative of 2 experiments
Description: (§1) Figure 3. Identification of robust vTreg53 TCR agonists. Single-point mutants based on the Fat7 (A) or Fat15 (B) peptides were used to stimulate Fat-TCR transduced Jurkat T cells. Data shown are mean fluorescence intensity for CD69 up-regulation following overnight stimulation with the indicated peptides at 100 µM. (C) Potent SPs based on Fat15. Single-residue mutations from the Fat15 are shown in red. Anchor positions are shown in grey and potential TCR-facing positions are shown in green. A peptide titration of single- and double-point mutants from the Fat15 SP show up to ~4- (D; CD69) or ~8 fold (E; CD25) increase in Emax. (F) Surface plasmon resonance for Fat7, Fat15, Fat1562 and Fat2564 was used to determine the pMHC/Fat TCR affinity. All biotinylated pMHC were purified by SEC and immobilized in a streptavidin-coated SPR sensor chip from 200 up to 600 RU. Data are mean ± SD from n = 2 (A, D, E) or 3 (B) biological replicates from 1 representative of 3 independent experiments. Data shown in (F) is representative of 2 independent experiments. Figure 3—figure supplement 1. In vitro peptide stimulation of the vTreg53 TCR cells. (A) Expression of wild-type Ab MHC in stably transduced K562 cells. (B) Expression of vTreg53 TCR in stably transduced Jurkat T cells (TCRαβ-/-). (C) Fraction of CD25+/CD69+ cells following overnight stimulation with Fat mimotopes at the indicated concentrations. (D) Peptide-A^b - streptavidin PE (pAb -SAPE) titration of vTreg53 transduced Jurkat T cells. Cells were stained with 250 nM of pA^b-SAPE tetramer for 1 hr.
High Five cells (Tni; Expression Systems) were grown in Insect X-press media (Lonza) or ESF 921 media (Expression Systems) with a final concentration of 10 mg/L of gentamicin sulfate (ThermoFisher) at 27°C at atmospheric CO2. SF9 cells are grown in SF900-III or -II serum-free media (ThermoFisher) with 10% FBS and final concentration 10 mg/L of gentamicin sulfate and 2 mM glutamax at 27°C at atmospheric CO2. P1 or P2 virus was used to infect volumes of 1–3 L of Hi5 cells at ∼2 × 10^6 cells/ml. Supernatant was harvested 2–3 days post-infection and spun down at 8000 rpm for 15 min. The supernatant containing expressed protein was treated to 100 mM Tris pH 8.0, 1 mM NiCl2, and 5 mM CaCl2 to precipitate contaminants. The supernatant and precipitate mixture was spun down at 8000 rpm for 20 min at 4°C to remove precipitate. The supernatant was incubated with Ni-NTA resin (QIAGEN) for >3 hr at room temperature. Ni-NTA beads were collected and washed in a Buchner funnel with 20 mM imidazole in 1 x HBS pH 7.2 and eluted with 200 mM imidazole in 1x HBS pH 7.2. Protein was concentrated in a 10 kDa filter (Millipore, UFC903024) to ~1 mL. When appropriate, protein was biotinylated with BirA ligase, 100 μM biotin, 40 mM Bicine pH 8.3, 10 mM ATP, and 10 mM Magnesium Acetate at 4°C overnight. All proteins were further purified by size-exclusion chromatography using Superdex Increase S200 or S75, as appropriate (GE Healthcare). All proteins for in vivo studies were cleared of endotoxin. Final endotoxin levels were determined using a chromogenic endotoxin quantitation kit (Thermo Fisher) and never greater than 1 Endotoxin Unit/mg of purified protein.
A GE Biacore T100 was used to measure the KD by equilibrium methods. Approximately 200 resonance units (RU) of human CD45, PD-1 or mouse PD-1 was captured on a SA-chip (GE Healthcare), including a reference channel of an unrelated protein. SPR runs were performed in HBS-P+ (GE Healthcare). All measurements were made with 2-fold serial dilutions using 45–60 s association (at 30 μl/min) followed by >240 s dissociation (30 μl/min) at 25°C. Regeneration was performed using HBS-P+, 2 M MgCl2 or 0.1 M Glycine, pH 3.1 for 15–20 s at 50 μl/min. Measurement of titrations at equilibrium were used to determine the KD using Biacore Analysis Software (GE Healthcare). All measurements were repeated twice.

[1] = system: vTreg53 TCR (transduced Jurkat T cells); assay: CD69/CD25 up-regulation on vTreg53 TCR transduced Jurkat T cells with peptide-pulsed K562-A^b cells; type: cell-based, Homo sapiens (cells); murine TCR; details: for CD25 Emax, fold increase over Fat15: CD25, peptide titration, Figure 3E; for CD69 Emax, fold increase over Fat15: CD69, peptide titration, Figure 3D; for pEC50: peptide titration, CD69 (Figure 3D), overnight, mean ± SD from n = 2 biological replicates, 1 representative of 3 experiments
Description: as §1
Cell lines were kept in a humidified incubator at 37°C with 5% CO2 unless otherwise denoted. Jurkat T cells (derived from acute T cell leukemia ATCC TIB-152) and K562 cells (ATCC CCL-243) were cultured in RPMI supplemented with 2 mM glutamax (Invitrogen), 10% FBS (Sigma),10 mM HEPES pH 8.0 (ThermoFisher), 1 mM Sodium Pyruvate (Gibco) and 50 U/ml penicillin and streptomycin (ThermoFisher). Validation of T cell lines was performed by staining with known markers pre- and post- transfection or transduction. HEK293T (Lenti-X; Takara Bio USA, #632180) cells (female derived kidney cell line) were grown in DMEM complete media (ThermoFisher) supplemented with 10% FBS, 2 mM L-glutamine, and 50 U/ml of penicillin and streptomycin. Cells were tested for mycoplasma contamination using the MycoAlert Mycoplasma Detection kit (Lonza) and found to be mycoplasma-negative. For peptide assays, Jurkat T cells were rested overnight or for 2–3 hr in fresh RPMI complete. Cells were co-cultured for 16 to 48 hr with surrogate APCs: K562 transduced with A^b. After overnight incubation, cells were washed in MACS buffer and stained with anti-TCR, A^b, CD69 and CD25. EBY100 yeast cells were cultured in sterile filtered standard YPD (Bacto Peptone, glucose and yeast extract). Transformed yeast were grown in SDCAA (yeast nitrogen base, casamino acids -ADE, -URA, -TRP, D-glucose and buffered to pH 4.5 using sodium citrate and citric acid monohydrate) and induced in SGCAA where galactose replaces D-glucose. EBY100 cells are grown at 30°C when cultured in SDCAA, or at 20°C when cultured in SGCAA at atmospheric CO2 in an orbital shaker set to an agitation speed of 250 rpm.

pEC50 [1] | pKd (vTreg53 (Fat) TCR) | Sequence | affinity (vTreg53 (Fat) TCR; SPR) | koff (vTreg53 (Fat) TCR; SPR) | CD25 Emax, fold increase over Fat15 [1] [fold] | CD69 Emax, fold increase over Fat15 [1] | kon (vTreg53 (Fat) TCR; SPR) | CD69 up-regulation ([1]; overnight stimulation, screen at 100 µM)
4.84 |  | TMYKNPRPMAATG [Fat1562] | highest affinity | slowest koff | 4.1 | ~ 3 fold |  | 
5.05 | 6.46 | TMYKNLRPWAATG [Fat2564] | highest affinity | slowest koff | 8.7 | ~5 fold |  | 
 | 4.46 | LMFKGPHAVQAVG [Fat7] |  | fast kon and koff |  |  | fast kon | able to up-regulate CD69 expression
